{"source": "patent US20040121460A1", "about": "“Differentiation of stem cells to pancreatic endocrine cells” (priority 2003, published 2004)", "key": {"[1]": {"test_system": "ES cell-derived insulin-secreting islet clusters", "test": "Insulin secretion from ES cell-derived islet clusters, insulin ELISA", "assay_type": "cell-based, murine", "conditions": "for insulin secretion in response to agonists (secretagogues): in the presence of low concentration (5 mM) of glucose", "method": "A series of experiments were conducted to measure the kinetics and pharmacology of glucose-dependent insulin release. Insulin secretion was measured in Krebs-Ringer-bicarbonate buffer containing 120 mM NaCl, 5 mM KCl, 2.5 mM CaCl2, 1.1 mM MgCl2, 25 mM NaHCO3 and 0.1% bovine serum albumin at 37° C. Inhibitors of insulin secretion (nifedipine and diazoxide) were added to buffer during preincubation (30 min) and throughout the incubation period. For determination of total cellular insulin content, insulin was extracted from cells with acid ethanol (10% glacial acetic acid in absolute ethanol) overnight at 4° C., followed by cell sonication. Total cellular and secreted insulin was assayed using insulin ELISA kit (ALPCO, Windham, N.H.). Protein concentrations were determined using DC protein assay system (Bio-Rad, Hercules, Calif.).\nTo determine if the islet clusters utilize physiological glucose-mediated signaling pathways, the effect of several well-characterized agonists and antagonists of insulin secretion were examined. The mechanism by which glucose stimulates insulin secretion in vivo is complex. As outlined in FIG. 3B, transport of glucose into the cell, and its metabolism results in ATP production, an event which, in turn, leads to inhibition of ATP-dependent K^+ channels, cell membrane depolarization, opening of the voltage-dependent Ca^++ channels, and influx of extracellular Ca^++ into the cell. Additionally, intracellular Ca^++ can be elevated by release of Ca^++ from intracellular stores through other mechanisms. Elevation of free intracellular Ca^++ is coupled to multiple phosphorylation events modulated by protein kinase C (PKC) and protein kinase A (PKA) cascades, which ultimately lead to release of insulin from the cell (McClenaghan et al., J Mol. Med., 77:235, 1999)."}, "[2]": {"test_system": "ES cell cultures", "test": "LIF treatment of ES cell cultures at stage 2 (EB formation), immunostaining for EN-1, PDX-1, TuJ1, GFAP", "assay_type": "cell-based", "method": "FIG. 5 is a set of panels showing the neural and pancreatic differentiation of ES cells. FIG. 1A is a set of digital images showing the cells during the procedure for induction of midbrain dopaminergic neurons from ES cells as previous described (see WO 01/83715, herein incorporated by reference). Briefly, the ES cells were taken through 5 steps or stages. In stage 1 undifferentiated ES cells were cultured for 5 days in the presence of 15% fetal calf serum (FCS) on gelatin coated tissue culture dishes in the presence of LIF (1,400 U/ml). In stage 2 embryoid bodies (Ebs) were generated in the presence of FCS for 4 days in the presence or absence of LIF (1,000 U/ml.). In stage 3, the EBs were plated into ITSFn medium (Okabe et al., Mech. Dev. 59: 89-102, 1996) where over 10 days Nestin+ cells migrated from the cell aggregates. In stage 4 these Nestin+ cells were resuspended and expanded for 4 days in N2 medium containing bFGF, sonic hedgehog (Shh) and fibroblast growth factor-8 (FGF8). In stage 5 the medium was changed into N2 medium without bFGF, Shh or FGF8. These cells differentiated efficiently into neurons and astrocytes over a two week period. Embryoid bodies were generated in the presence (LIF+) or absence (LIF−) of LIF (1000 U/ml) and differentiated. Double-immunostaining for TuJ1/GFAP (upper panels, day 8 in stage 5) and PDX-1/En-1 (lower panels, day 3 in stage 4). LIF treatment in stage 2 (EB formation) increases the neuronal (TuJ1+cells, light grey) and decreases the astrocytic (GFAP+, dark grey) population. […] FIG. 5C is a bar graph showing that the yield of En-1+ and PDX-1+ cells is expressed as a percentage of total cells at stage 4.\nThe methods disclosed herein include five stages: (1) expansion of ES cells (2) generation of EB (3) selection for CNS precursor cells (4) expansion of pancreatic (versus central nervous system (CNS)) precursor cells, and (5) differentiation of pancreatic endocrine cells (versus differentiation of neuronal cells). Expansion of ES cells and generation of EB was performed as disclosed herein. EB were cultured in DMEM/15% serum (ES medium) with LIF (1000 units (U)/ml) for 4 days with changing medium every 2 day. After 4 days, EBs were transferred to a tissue culture dish cultured in ITS medium containing fibronectin for 10-12 days. EBs which were kept in absence of LIF in stage II were phenotypically different than EB cultured in the presence of LIF in stage II. In stage 1V, ES-derived CNS precursor were cultured in N2 medium in the presence of bFGF (20 ng/ml) and Shh (500 ng/ml) and FGF8 (100 ng/ml) for 4 days and after withdrawal of bFGF/SHH/FGF8, differentiated them for 10-12 day in N2 medium with ascorbic acid. Specifically, EB cultured in the absence of LIF were spread out in stage III. EBs which were treated with LIF maintained a round shape and CNS precursor cells migrated from attaching point of EB in dishes. Therefore, a selection for CNS precursor was accomplished by culturing in the […] of LIF."}, "[3]": {"conditions": "at stage 4, LIF at stage 2 (EB formation)"}}, "note": "Entries after “also recorded” stand apart in the source; their conditions may differ."}
{"molecule": "CC(C)Cn1c(=O)n(C)c(=O)c2[nH]cnc21", "note": "[IBMX, 3-isobutil-1-methylxanthine]", "values": [{"measurement": "insulin secretion in response to agonists (secretagogues)", "setting": "[1]", "result": "stimulated insulin secretion"}]}
{"molecule": "CC1=NS(=O)(=O)c2cc(Cl)ccc2N1", "note": "[diazoxide]", "values": [{"measurement": "insulin secretion in the presence of antagonists (inhibitors)", "setting": "[1]; in the presence of high glucose concentrations (20 mM)", "result": "inhibited insulin secretion"}]}
{"molecule": "C[N+](C)(C)CCOC(N)=O", "note": "[carbachol]", "values": [{"measurement": "insulin secretion in response to agonists (secretagogues)", "setting": "[1]", "result": "stimulated insulin secretion"}]}
{"molecule": "LIF: growth factor that prevents differentiation of ES cells; glycosylated 58 kDa protein of 179 amino acids", "values": [{"measurement": "PDX-1 positive cells / pancreatic precursor cells", "setting": "[2]; [3]", "result": "negatively regulates; also recorded: Only few"}, {"measurement": "expression of EN-1 / midbrain precursor cells (En-1+ cells)", "setting": "[2]; [3]", "result": "efficiently enhances; also recorded: increases"}, {"measurement": "EN-1 positive cells, share of total ES cell-derived cell population", "setting": "[2]; at stage 4, LIF present at stage 2", "result": "up to 80%"}, {"measurement": "yield of neurons / neuronal (TuJ1+) population", "setting": "[2]; at stage 5, LIF at stage 2 (EB formation)", "result": "increased"}, {"measurement": "astrocytic (GFAP+) population", "setting": "[2]; day 8 in stage 5, LIF at stage 2 (EB formation)", "result": "decreases"}]}
{"molecule": "CCCCNC(=O)NS(=O)(=O)c1ccc(C)cc1", "note": "[tolbutamide]", "values": [{"measurement": "insulin secretion in response to agonists (secretagogues)", "setting": "[1]", "result": "stimulated insulin secretion"}]}
